Experimental findings from ChEMBL document CHEMBL3507680, “University of Dundee, Gates Library screen for HepG2 cell viability” are described below.

The data set in a line: Human HepG2 cell viability assay in 384 well format. Type of data set: toxicity, cell-based. Conditions: HepG2 cells, read-out: Inhibition. Also on record: dose 125 nL, time 70.5 hour; cytotoxicity at 70.5 h: concentration not given beside the values.
In the case of `c1csc(CN2C[C@H]3CCC[C@@]3(COCC3CCOCC3)C2)n1`, the cytotoxicity at 70.5 h came to 1.66%.

Turning to `CNC(=O)N1CC[C@@H]2CN(CCc3cccc(OC)c3)S(=O)(=O)[C@@H]2CC1`, the cytotoxicity at 70.5 h was -0.824%.

As to `c1ccc(COC[C@@]23CCC[C@@H]2CN(Cc2ccccn2)C3)nc1`, the cytotoxicity at 70.5 h was 0.536%.

In the case of `CN1CCN(Cc2ccco2)Cc2cccnc21`, the cytotoxicity at 70.5 h amounted to 0%.

With `O=C([C@H]1C[C@H]2OCC[C@H]2N(CC2CC2)C1)N1CCCC1`, the cytotoxicity at 70.5 h came out at 5.6%.

Turning to `Cn1cc(CN2CCc3ncnc(C4CCOC4)c3CC2)cn1` (stereo unspecified), the cytotoxicity at 70.5 h is 6%.

Turning to `Cn1cccc1C(=O)N1CC[C@H]2[C@@H]1CCC(=O)N2c1ccccc1`, the cytotoxicity at 70.5 h was 11.6%.

For the compound `O=C(Cc1ccccc1)N1CC[C@@H]2CNS(=O)(=O)[C@@H]2CC1`, the cytotoxicity at 70.5 h came to 2.48%.

In the case of `Cn1cccc1C(=O)N1CC[C@H]2[C@@H]1CCC(=O)N2CC1CC1`, the cytotoxicity at 70.5 h amounted to 3.01%.

For the compound `O=C(NC1CC1)N1CCc2ccc(=O)n(CC3CC3)c2CC1`, the cytotoxicity at 70.5 h was -1.74%.

Regarding `O=C(NC1CC1)N1CCc2ccc(=O)n(Cc3ccncc3)c2CC1`, the cytotoxicity at 70.5 h amounted to 12.1%.

Consider `COCCNC(=O)[C@]12COC[C@H]1CN(c1cc(OC)ncn1)C2`, for which the cytotoxicity at 70.5 h was -1.98%.

Take `CN1CC(c2ccccc2)C2(CCN(C(=O)c3cccn3C)CC2)C1=O` (stereo unspecified): the cytotoxicity at 70.5 h is 1.54%.

Take `COc1cc(N2C[C@@H]3COC[C@]3(C(=O)NCc3ccccn3)C2)ncn1`: the cytotoxicity at 70.5 h was -3.03%.

In the case of `CCc1cnc(N2CC[C@@H]3CN(C(C)=O)CCO[C@@H]3C2)nc1`, the cytotoxicity at 70.5 h was -2.86%.

In the case of `CN1C(=O)CC(c2ccccc2)C12CCN(C(=O)c1ccc[nH]1)CC2` (stereo unspecified), the cytotoxicity at 70.5 h is -4.56%.

`CCOc1ncnc2c1CCN(C(=O)CN(C)C)CC2`: the cytotoxicity at 70.5 h stood at 0.621%.

Regarding `O=C(c1ccccc1-c1ccccc1)N1C[C@@H]2CNC[C@]2(C(=O)O)C1`, the cytotoxicity at 70.5 h turned out to be 1.22%.

`O=C([C@H]1C[C@H]2OCC[C@H]2N(CC2CCOCC2)C1)N1CCCC1`: the cytotoxicity at 70.5 h is -2.01%.

Consider `Fc1ccc(N2CCC3(CC2)CC(OCc2cccnc2)CO3)cc1` (stereo unspecified), for which the cytotoxicity at 70.5 h was determined as 0.624%.

In the case of `COc1cccc(CN2CCC3(CCN(c4ncc(F)cn4)CC3)C2)c1`, the cytotoxicity at 70.5 h worked out at 0.663%.

As for `O=S1(=O)NC[C@H]2CCN(Cc3ccccc3)CC[C@H]21`, the cytotoxicity at 70.5 h was -2.52%.

On to `N#Cc1ccc(CN2CC3(CCCCN3c3cccnc3)CC2=O)cc1` (stereo unspecified), for which the cytotoxicity at 70.5 h stood at 1%.

Regarding `CNC(=O)COC1COC2(CCN(c3cnccn3)CC2)C1` (stereo unspecified), the cytotoxicity at 70.5 h amounted to 4.72%.

As for `Cc1ccc(CN2CCOC3(CCN(C(=O)C4CCOC4)CC3)C2)cc1` (stereo unspecified), the cytotoxicity at 70.5 h was -1.7%.

Consider `Cc1noc(C)c1CN1CCC2(CC1)CCN(C(=O)c1cscn1)C2`, for which the cytotoxicity at 70.5 h turned out to be 10.4%.

For the compound `CCc1ccc(CN2CC[C@@H]3CN(S(C)(=O)=O)CCO[C@@H]3C2)o1`, the cytotoxicity at 70.5 h was -3.27%.

As for `COCCN1CCN(C)C2(CCN(C(=O)c3ccnnc3)CC2)C1=O`, the cytotoxicity at 70.5 h is -0.603%.

With `Fc1cnc(N2CCC3(CC2)CN(Cc2ccccn2)CCO3)nc1`, the cytotoxicity at 70.5 h turned out to be 5.75%.

In the case of `c1ccc(CN2C[C@H]3CCC[C@@]3(COCC3CC3)C2)nc1`, the cytotoxicity at 70.5 h is -0.925%.

For the compound `O=C(C1CN(Cc2ccsc2)Cc2ccnn2C1)N1CCCC1` (stereo unspecified), the cytotoxicity at 70.5 h worked out at 2.84%.

As for `CS(=O)(=O)N1CCO[C@@H]2CN(Cc3ccncc3)C[C@@H]2C1`, the cytotoxicity at 70.5 h is -5.73%.

In the case of `Fc1cccc(N2CCCC3(CN(Cc4ccccn4)CCO3)C2)c1` (stereo unspecified), the cytotoxicity at 70.5 h was -1.7%.

`Cc1cccc(CN2Cc3[nH]nc(COc4cccnc4)c3C2)n1`: the cytotoxicity at 70.5 h is -3.62%.

On to `Cn1cnc(S(=O)(=O)N2C[C@H]3CN(Cc4cccnc4)C[C@H]3C2)c1`, for which the cytotoxicity at 70.5 h was 1.66%.

Turning to `CO[C@@H]1CCN(c2ncc(F)cn2)[C@@H]2CN(Cc3cccnc3)C[C@@H]21`, the cytotoxicity at 70.5 h is -0.732%.
